pKi: −log10 of the molar value. Where “and” joins values, the source holds several entries; their conditions need not be identical. Equal entries are not always repeated.
Molecular target: Histamine H4 receptor (Homo sapiens, UniProt Q9H3N8)
Sequence (Q9H3N8 whole entry): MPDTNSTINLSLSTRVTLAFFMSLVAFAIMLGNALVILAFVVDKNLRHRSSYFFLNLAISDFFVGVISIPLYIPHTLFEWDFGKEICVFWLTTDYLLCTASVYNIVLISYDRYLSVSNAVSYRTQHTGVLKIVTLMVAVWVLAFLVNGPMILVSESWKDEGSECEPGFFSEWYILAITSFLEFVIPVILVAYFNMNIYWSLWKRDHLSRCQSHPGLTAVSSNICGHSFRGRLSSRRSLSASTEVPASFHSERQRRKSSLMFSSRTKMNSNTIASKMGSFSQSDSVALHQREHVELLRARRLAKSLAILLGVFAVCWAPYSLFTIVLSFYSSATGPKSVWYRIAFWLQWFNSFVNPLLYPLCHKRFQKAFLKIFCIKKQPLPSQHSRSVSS

## C[C@@H](N)Cc1c[nH]cn1
  pKi: 6.46 and 6.63

From BindingDB's records for doi:10.1124/mol.59.3.434 (Smithkline Beecham Pharmaceuticals, 2001)
